Assay results published in the NIST ThermoML archive (doi:10.1021/je800348s).
± gives the expanded uncertainty stated by the source.

Experiment: xn = mol fraction of the nth substance listed
Conditions: 101 kPa, Liquid; for mass density: Vibrating tube method

C1C[C@@H]2[C@H]3CC[C@H](C3)[C@@H]2C1 [exo-tetrahydrodicyclopentadiene] + CCCCCCCC
Conditions | mass density, 293.15 K [kg/m3] | mass density, 298.15 K [kg/m3] | mass density, 303.15 K [kg/m3] | mass density, 313.15 K [kg/m3] | viscosity, 293.15 K [mPa·s] | viscosity, 298.15 K [mPa·s] | viscosity, 303.15 K [mPa·s] | viscosity, 313.15 K [mPa·s]
x2 = 0 | 935.2 ± 8 | 931.4 ± 8 | 927.7 ± 8 | 922.2 ± 8 | 3.064 ± 0.077 | 2.74 ± 0.069 | 2.514 ± 0.063 | 2.27 ± 0.057
x2 = 0.117 | 906.1 ± 8 | 901 ± 8 | 898.5 ± 8 | 893.5 ± 8 | 2.353 ± 0.06 | 2.109 ± 0.053 | 1.945 ± 0.049 | 1.769 ± 0.045
x2 = 0.2275 | 879.1 ± 8 | 874.5 ± 8 | 871.8 ± 8 | 866.6 ± 8 | 1.836 ± 0.047 | 1.665 ± 0.042 | 1.553 ± 0.039 | 1.421 ± 0.036
x2 = 0.3384 | 852.4 ± 8 | 848.1 ± 8 | 845.4 ± 8 | 839.8 ± 8 | 1.47 ± 0.037 | 1.351 ± 0.034 | 1.272 ± 0.032 | 1.166 ± 0.03
x2 = 0.4431 | 827.7 ± 8 | 823.6 ± 8 | 820.7 ± 8 | 814.9 ± 8 | 1.216 ± 0.031 | 1.12 ± 0.029 | 1.056 ± 0.027 | 0.9677 ± 0.025
x2 = 0.5439 | 804.2 ± 8 | 800.3 ± 8 | 797.2 ± 8 | 791 ± 8 | 1.027 ± 0.027 | 0.9508 ± 0.025 | 0.8917 ± 0.023 | 0.8212 ± 0.022
x2 = 0.6417 | 781.8 ± 8 | 778 ± 8 | 774.8 ± 8 | 768.3 ± 8 | 0.8793 ± 0.023 | 0.8194 ± 0.022 | 0.7691 ± 0.02 | 0.7085 ± 0.019
x2 = 0.7361 | 760.4 ± 8 | 756.6 ± 8 | 753.2 ± 8 | 746.4 ± 8 | 0.7663 ± 0.02 | 0.7198 ± 0.019 | 0.6752 ± 0.018 | 0.6197 ± 0.017
x2 = 0.8265 | 740.3 ± 8 | 736.5 ± 8 | 732.9 ± 8 | 725.6 ± 8 | 0.6722 ± 0.018 | 0.6345 ± 0.017 | 0.5929 ± 0.016 | 0.5424 ± 0.015
x2 = 0.9143 | 721.1 ± 8 | 717.1 ± 8 | 713.3 ± 8 | 705.6 ± 8 | 0.5988 ± 0.016 | 0.5681 ± 0.016 | 0.5302 ± 0.015 | 0.4839 ± 0.014

C1C[C@@H]2[C@H]3CC[C@H](C3)[C@@H]2C1 [exo-tetrahydrodicyclopentadiene] + CCCCCCCCCC
Conditions | mass density, 293.15 K [kg/m3] | mass density, 298.15 K [kg/m3] | mass density, 303.15 K [kg/m3] | mass density, 313.15 K [kg/m3] | viscosity, 293.15 K [mPa·s] | viscosity, 298.15 K [mPa·s] | viscosity, 303.15 K [mPa·s] | viscosity, 313.15 K [mPa·s]
x2 = 0 | 935.2 ± 8 | 931.4 ± 8 | 927.7 ± 8 | 922.2 ± 8 | 3.064 ± 0.077 | 2.74 ± 0.069 | 2.514 ± 0.063 | 2.27 ± 0.057
x2 = 0.095 | 912.7 ± 8 | 907.5 ± 8 | 905.4 ± 8 | 900.2 ± 8 | 2.631 ± 0.066 | 2.339 ± 0.059 | 2.191 ± 0.055 | 2.006 ± 0.051
x2 = 0.1934 | 890 ± 8 | 885.1 ± 8 | 882.8 ± 8 | 877.8 ± 8 | 2.26 ± 0.057 | 1.996 ± 0.05 | 1.889 ± 0.047 | 1.741 ± 0.044
x2 = 0.2908 | 868.3 ± 8 | 863.7 ± 8 | 861.2 ± 8 | 856.3 ± 8 | 1.964 ± 0.05 | 1.728 ± 0.044 | 1.638 ± 0.041 | 1.53 ± 0.039
x2 = 0.3902 | 846.8 ± 8 | 842.5 ± 8 | 839.8 ± 8 | 834.8 ± 8 | 1.717 ± 0.043 | 1.521 ± 0.038 | 1.441 ± 0.036 | 1.334 ± 0.034
x2 = 0.4893 | 826 ± 8 | 822 ± 8 | 819 ± 8 | 814 ± 8 | 1.525 ± 0.039 | 1.362 ± 0.034 | 1.287 ± 0.032 | 1.214 ± 0.031
x2 = 0.6147 | 800.7 ± 8 | 796.9 ± 8 | 793.7 ± 8 | 788.4 ± 8 | 1.348 ± 0.034 | 1.194 ± 0.03 | 1.143 ± 0.029 | 1.101 ± 0.028
x2 = 0.6905 | 786 ± 8 | 782.3 ± 8 | 779 ± 8 | 773.3 ± 8 | 1.245 ± 0.032 | 1.102 ± 0.028 | 1.058 ± 0.027 | 1.032 ± 0.026
x2 = 0.7895 | 767.4 ± 8 | 763.7 ± 8 | 760.3 ± 8 | 754.2 ± 8 | 1.13 ± 0.029 | 1.009 ± 0.026 | 0.9726 ± 0.025 | 0.9345 ± 0.024
x2 = 0.8952 | 748.2 ± 8 | 744.6 ± 8 | 740.9 ± 8 | 734.3 ± 8 | 1.032 ± 0.026 | 0.9181 ± 0.024 | 0.8852 ± 0.023 | 0.8537 ± 0.022
